This note sets out measurements from US20100190724A1, “USE OF MELANOCYTE-STIMULATING HORMONE RELEASE-INHIBITING FACTOR AS A THERAPEUTIC AGENT IN THE TREATMENT OF PSEUDOMONAS AERUGINOSA INFECTION” (priority 2007, published 2010).

This experiment deals with drug-resistant Mycobacterium tuberculosis. The settings on record: peptide 10 micrograms per ml, seven days.

Where a SMILES comes first, the peptide text is derived from it.

Consider `CC(C)C[C@H](NC(=O)[C@@H]1CCCN1)C(=O)NCC(N)=O` [MSHRIF, Pro-Leu-Gly-NH2] (H-Pro-Leu-Gly-NH2), for which the % inhibition – broadly, how much of the control response was suppressed – was found to be 0.0%.
